Results taken from patent publication US6407058B1, “Modifying the permeability of physiological barriers” (Eisai Co., Limited, priority 1996, dated 2002).

Legend:
Type in all cases: cell-based
E-cadherin = experiment: [32P] phosphorylation of immunoprecipitated E-cadherin, MDCK I cells; settings: PDB-treated, same cell lysates
p100/p120 [1] = experiment: p100/p120 electrophoretic mobility, human umbilical vein endothelial cells (HUVECs); settings: HUVECs, 200 nM PDB, 30 minutes
Method: (§1) Cells were treated with or without 200 nM PDB for 30 minutes, lysed into Laemmli sample buffer, separated by electrophoresis and analysed by immunoblotting with antibodies recognising p100 and p120.
Human umbilical vein endothelial cells were incubated with histamine (His), pyrilamine (Pyr) or cimetidine (Cim) alone or in combination. As indicated, cells were preincubated in the absence or presence of cimetidine (10 μM) or pyrilamine (10 μM) for 10 minutes and then treated with or without histamine (10 μM) for a further 10 minutes. The cells were extracted and protein analysed by gel electrophoresis and immunoblotting. […] In the following examples, increase mobility of p100/p120 means decreased phosphorylation.
(§2) Whole cell lysates were prepared by rapidly replacing the culture medium in 6.5 mm with hot Laemmli sample buffer, followed by heating at 100° C. for 5 minutes. Immunoprecipitations were carried out at 4° C. Confluent monolayers of cells were washed rapidly with ice cold PBS (containing 0.9 mM CaCl2 and 0.5 mM MgCl2) before addition of 0.5 ml of the appropriate buffer. The filters were then gently scraped, and the lysate was removed and centrifuged at 14000× g. The supernatant was precleared with 10% (w/v) protein A-Sepharose in lysis buffer for 30-60 minutes. Appropriate primary antibodies were added to the lysate, and after 2-3 hours the immunecomplex was isolated, using rabbit anti-mouse secondary antibodies (Jackson Immunoresearch Labs Inc., West Grove, Pa.) and protein A-Sepharose. The beads were washed fives times with lysis buffer, and the bound protein was solubilized in SDS-sample buffer, followed by heating at 100° C. for 5 minutes.
Cell extracts or immunoprecipitates in SDS sample buffer were resolved by SDS-PAGE. The slab gels were then equilibrated in buffer comprising; 48 mM Tris, 39 mM glycine, 20% methanol and 0.03% SDS. Proteins were transferred to nitrocellulose filters (Hybond ECL; Amersham), which were Ponceau S stained and then blocked for 2 hours at 37° C. with 1% BSA in PBS containing 0.05% Tween-20. Filters were then probed with p120 antibody, at a dilution of 1:2500. After washing, filters were incubated with horseradish peroxidase conjugated anti-mouse antibody (Amersham), at a dilution of 1:5000. The filters were then extensively washed in PBS/0.5% Tween-20, and immunoreactive bands were detected by enhanced chemiluminescence (Amersham) following the manufacturers instructions.

p100/p120 [2] = experiment: p100/p120 electrophoretic mobility, primary pig brain endothelial cells (PBECs); settings: PBECs, 200 nM PDB, 30 minutes
Method: as §1
MDCK strain I and II cells were provided by Barry Gumbiner (memorial Sloan-Kettering Cancer Center, NY). LLC-PK1 and Caco-2 cells were obtained from the European Collection of Animal Cell Cultures. All cells were maintained at 37° C. under 5% CO2 in humidified air. MDCK strain I and II cells were maintained in MEM containing 10% FCS, 100 U/ml penicillin, 100 μg/ml streptomycin and 2 mM L-glutamine. Caco-2 cells were maintained in MEM containing 15% FCS, 1% non-essential amino acids and 1 μg/ml bovine insulin (Sigma I-6634). LLC-PK1 cells were grown in M199 (Gibco), 10% FCS, 100 U/ml penicillin, 100 μg/ml streptomycin and 2 mM L-glutamine. For whole cell lysate analysis, 10^5 cells were plated on 6.5 mm diameter, 0.4 μm, polycarbonate Transwell filters from Costar, in 0.25 ml of medium. The basolateral chamber contained 0.75 ml of medium. For immunoprecipitation, 5×10^5 cells were plated onto 24 mm Transwell filters, in 2 ml of medium, with 3 ml of medium in the lower chamber. Cells were used 4-7 days after plating. Tissue culture materials were from Gibco. Porcine brain endothelial cells were isolated and grown by modifications of a previously published procedure (Rubin et al., 1991). Brain capillary fragments were plated on dishes coated with rat tail collagen and human fibronectin. The cultures were fed every other day with growth medium composed of 50% astrocyte-conditioned medium and 50% Dulbecco's Modified Eagle Medium containing 10% plasma-derived serum, 125 μg/ml heparin, antibiotics and glutamine. They were incubated in a humidified atmosphere of 10% CO2 at 37° C. When the endothelial cells were approximately 50% confluent (after 4-6 days in culture), they were trypsinized and plated onto collagen-coated polycarbonate Transwell filters (6.5 mm diameter, 0.4 μm pore size, tissue culture treated, Costar Corp, Cambridge, Mass., U.S.A.) in the same medium (250 μl apically, 750 μl basolaterally). After 2-3 days on filters, the medium was switched to a 1:1 mixture of astrocyte-conditioned medium and a Dulbecco's Modified Eagle Medium-based, chemically defined medium (‘N2’, Rubin et al., 1991; Bottenstein and Sato, 1979). The final concentration of plasma-derived serum was 5%. Human umbilical vein endothelial cells were from Clonetics.
as §2, with “A-Sepharose.” for “A-Sepharose. The beads were washed fives times with lysis buffer, and the bound protein was solubilized in SDS-sample buffer, followed by heating at 100° C. for 5 minutes.”

p100/p120 [3] = experiment: immunofluorescence localisation of p100/p120, MDCK I cells; settings: PDB-treated vs control
Excerpt: It has been shown that although some of the p100/p120 in cells is associated with adherens junctions, there is also a large pool that is not complexed with cadherins (at least by immunoprecipitation analysis). […] This procedure served to isolate only that portion of the cellular p100/p120 that associates with the cadherins. Following electrophoresis, and transfer to nitrocellulose, the p100 and p120 present in E-cadherin immunoprecipitates were detected by immunoblotting (Example 9A). […] In both cases, p100/p120 is shown to be present at regions of cell—cell contact.
Cells were fixed at room temperature for 20 minutes in 3% paraformaldehyde made up in PBS containing 0.5 mM CaCl2 and 0.5 mM MgSO4. Fixed cells were washed and then permeabilized by incubation with 0.5% Triton X-100 in PBS for 10 minutes. After washing, the cells were incubated for 30 minutes in PBS containing 10% calf serum and 0.1 M lysine, pH 7.4. Incubation with p120 antibody (0.5 μg/ml) was in PBS containing 10% calf serum for 1 hour. After washing, the cells were then incubated for 60 minutes with a 1:100 dilution of FITC-conjugated anti-mouse IgG (Jackson Immunoresearch Labs), in PBS containing 10% calf serum. After washing, the filters were mounted with Citifluor (Citifluor Products, Canterbury, UK) and examined using a Nikon Microphot-FXA fluorescence microscope fitted with 40× and 60× objectives. […]

## CCCC(=O)O[C@@H]1[C@@H](C)[C@@]2(O)[C@@H](C=C(CO)C[C@]3(O)C(=O)C(C)=C[C@@H]23)[C@@H]2C(C)(C)[C@]12OC(=O)CCC [PDB, Phorbol-12,13-dibutyrate]
E-cadherin
  phosphorylation of E-cadherin: no change
p100/p120 [1]
  mobility of p100 and p120: the mobility of p100 and p120 increased
p100/p120 [2]
  mobility of p100 and p120: the mobility of p100 and p120 increased
p100/p120 [3]
  localisation of p100 and p120: no change in the localisation
